Data published in patent US8962600B2, “Neuroprotective compounds and their use” (The Medical College of Wisconsin, Inc., priority 2009, dated 2015).

Columns and labels:
[1] = system: GFAP; experiment: GFAP expression in substantia nigra (astroglial activation), immunostaining; format: in vivo, C57BL/6 mice; conditions: diapocynin 300 mg/kg gavage, 1 day pre-treatment + 4 days co-treatment with MPTP 25 mg/kg i.p.
Method: (§1) For checking inflammatory and oxidative stress markers, mice were gavaged diapocynin (300 mg/kg dose) 1 day before MPTP treatment (pre-treatment) and continued for another 4 days of co-treatment with MPTP. In the sub-acute MPTP regimen, MPTP (25 mg/kg) was injected intraperitoneally once per day from day 2 to day 7. Control mice received saline at the same dosage.
(§2) Four days after MPTP treatment, mice were perfused with 4% paraformaldehyde (PFA) and post-fixed with PFA and 30% sucrose, respectively. Next, fixed brains were cut into 30 μm sections and kept in 30% sucrose-ethylene glycol solutions at −20° C. On the day of staining, sections were rinsed with phosphate-buffered saline (PBS) and incubated with different primary antibodies, including anti-IBA-1 (DAKO, Carpinteria, Calif.), anti-GFAP (Millipore, Billerica, Mass.), anti-iNOS (Santa Cruz Biotechnology, Santa Cruz, Calif.), anti-3NT (Millipore), anti-4HNE (R&D Systems, Minneapolis, Minn.) and anti-gp91phox (Santa Cruz Biotechnology) for overnight at 4° C. Appropriate secondary antibodies (Alexa Fluor 488, 594, or 555 from Invitrogen, Carlsbad, Calif.) were used followed by incubation with 10 μg/ml Hoechst 33342 for 5 min at room temperature to stain the nucleus. Sections were viewed under a Nikon inverted fluorescence microscope (model TE-2000U; Nikon, Tokyo, Japan). […]

[2] = system: 4-hydroxynonenol (4-HNE); experiment: 4-hydroxynonenol expression in substantia nigra, Western blot and immunostaining; format: in vivo, C57BL/6 mice
Method: as §1, §2

[3] = system: p67phox; experiment: LPS-induced p67phox protein expression in BV2 cells, Western blot; format: cell-based, mouse; conditions: diapocynin 10 μM 30 min pretreatment, LPS 1 μg/ml 24 hr, back to basal level or below
Method: Two cell models of neuroinflammation were used to evaluate the anti-neuroinflammatory property of diapocynin including the mouse BV2 microglial cell line, as well as primary microglia isolated from mouse brains. BV2 cells were obtained from the American Tissue Culture Collection. BV2 cells were maintained in RPMI containing 10% FBS and 100 units of pen/strep at 37° C. and 5% CO2. For treatments, RPMI containing 2% FBS and 100 units of pen/strep was used.
BV2 cell lysates containing equal amounts of protein were loaded in each lane and separated on a 10% SDS-PAGE gel. After separation, the protein was transferred to a nitrocellulose membrane. Non-specific binding sites were blocked with Li-cor blocking buffer for 45 min. The membranes were then treated with primary antibodies directed against NOS2 (mouse monoclonal 1:200) and p67phox (rabbit polyclonal 1:200). To confirm equal amounts of protein were loaded, membranes were also probed for β-actin with a β-actin antibody (dilution of 1:10,000). Secondary antibodies, donkey anti-mouse (Invitrogen) and conjugated anti-rabbit IgG (Rockland), were used at a dilution of 1:10,000 for 1 hr at room temperature. The membranes were imaged and captured using a Li-COR Odyssey infrared imaging system and software.

[4] = system: MPTP mouse model of Parkinson's Disease; experiment: HPLC analysis of striatal dopamine and its metabolites, MPTP mouse model (Example 3); format: in vivo, C57BL/6 mice; conditions: MPTP- and diapocynin-treated mice, diapocynin 300 mg/kg oral gavage, MPTP 25 mg/kg i.p.
Method: Six- to 8-week-old C57BL/6 mice weighing 24 to 28 g were housed in standard conditions of constant temperature (22±1° C.), humidity (relative, 30%), and a 12-h light/dark cycle. Mice were allowed free access to food and water. Use of the animals and protocol procedures were approved and supervised by the Committee on Animal Care at Iowa State University (Ames, Iowa). For neurodegeneration studies, mice either received diapocynin (300 mg/kg dose) by oral gavage for 1 day (pre-treatment before MPTP administration), 5 days (co-treatment with MPTP), or 7 days (post-treatment after MPTP).
as §1
Striatal dopamine (DA), DOPAC and HVA levels were quantified by high-performance liquid chromatography (HPLC) with electrochemical detection. Samples were prepared and quantified as described previously (48, 56). In brief, 7 days after MPTP injection mice were sacrificed, striata were collected and stored at −80° C. On the day of analysis, neurotransmitters from striatal tissues were extracted using an antioxidant extraction solution (0.1 M perchloric acid containing 0.05% Na2EDTA and 0.1% Na2S2O5) and isoproterenol (as an internal standard). The extracts were filtered in 0.22 μm spin tubes, and 20 μl of the samples were loaded for analysis. DA, DOPAC and HVA were separated isocratically on a reversed-phase column with a flow rate of 0.6 ml/min. An HPLC system with an automatic sampler equipped with refrigerated temperature control (model 542; ESA, Inc., Bedford, Mass.) was used for HPLC analysis. The electrochemical detection system consisted of a Coulochem (model 5100A, ESA, Inc.) with a microanalysis cell (model 5014A, ESA, Inc.) and a guard cell (model 5020, ESA, Inc.). […]

For `COc1cc(C(C)=O)cc(-c2cc(C(C)=O)cc(OC)c2O)c1O` [diapocynin], the “GFAP protein expression in substantia nigra” value [1] was “inhibition”, the “MPTP-induced increase in expression of 4-HNE in substantia nigra” value ([2]; diapocynin 300 mg/kg gavage, MPTP 25 mg/kg i.p., Western blot and immunostaining) was “attenuated” and the “colocalized cells of TH and 4-HNE in substantia nigra” value ([2]; double-label immunostaining, MPTP- and diapocynin-treated mice) was “very few colocalized cells”. The “reducing LPS-induced p67phox protein expression” value [3] was “extremely effective”, the “striatal DOPAC levels” value [4] was “significant preservation” and the “striatal HVA levels” value [4] was “significant preservation”. For the same molecule, the “decrease of dopamine levels in striatum” value ([4]; 7 days after MPTP) was “less than 40%”.
